Assay results from patent publication US20070031341A1, “Methods of delivering therapeutics to the brain” (priority 2005, published 2007).

Experiments:
[1] = cited from earlier work
[2] = pKa and protonated cationic fraction of lubeluzole; assay type: physicochemical
Text: Because lubeluzole has a PKa of 7.6 it is present in its protonated cationic form at pHs less than 7.6. For example, at pHs of 7.4 and 6.0, about 61% and 97% of lubeluzole is respectively present in its protonated cationic form. Therefore, the skilled artisan can expect a significant amount of lubeluzole to be present in its cationic form at relatively mild pHs and particularly at the pHs of physiologic CSF (˜7.5). Moreover, support for the transport of benzothiazole derivatives is found in the literature. Levamisole is believed to be a benzothiazole derivativethat has been transdermally transported iontophoretically in order to treat herpes simplex virus and recurrent aphthous stomatitis.

[3] = tested on: cerebellar granule cells exposed to MPP+ neurotoxin; conditions: 100 μM Vitamin E; about 50% without; cited from earlier work

Row | lubeluzole present in its protonated cationic form ([2]; pH 6.0) | lubeluzole present in its protonated cationic form ([2]; pH 7.4) | Molecule | PKa [1] | in vitro viability of cerebellar granule cells exposed to MPP+ [3]
1 | ~97% | about 61% | CN(c1nc2ccccc2s1)C1CCN(C[C@H](O)COc2ccc(F)c(F)c2)CC1 [lubeluzole] | 7.6 | –
2 | – | – | Vitamin E | – | about 85%
